Reference: patent publication US9995734B2, “Human T cell line assay for evaluating the immunologic identity of glatiramer acetate preparations” (Mylan Inc., priority 2013, dated 2018)

Columns and labels:
[1] = test system: Donor 3 COP T-cell lines (165-B6C, 165-C7C, 165-D3C, 165-F3C, 165-F6C); assay: MHC DR restriction testing (ATP proliferation with autologous and partially HLA-DR matched APC), Donor 3 COP T-cell lines; type: cell-based, human; settings: 20 μg/mL
Description: (§1) MHC DR restriction testing of cell lines was carried out by measuring the proliferation response of the cell lines as described above in the presence of an array of APC selected based on the known HLA-DR loci of the original PBMC donor for the cell line tested, including autologous APC (B-LCL). The donors used are described in Table 2.
(§2) To define the MHC molecule used to present antigen to GA specific T cell lines, GA specific responses were measured in the presence of autologous APC and in the presence of APC matching one of the T cell donor's HLA-DR alleles. Therefore at least 3 APC were used in each experiment: autologous APC, APC matching DR allele 1 but not allele 2 and a third APC matching allele 2 but not allele 1. In some experiments a fourth APC B-LCL was used. A no antigen negative control was used. APC were inactivated by incubation with 50 ug/mL mitomycin C. Following inactivation, cells were washed three times to remove mitomycin C and suspended in X-VIVO 15 medium at 1×10^6 cells per mL. GA was added to the cell suspension to a final concentration of 20-60 μg/mL. The cells were incubated with antigen for 1 hour at 37° C. to allow antigen uptake and binding. The cell suspension was then centrifuged to pellet the cells and the cell pellet was washed once with medium. APC were adjusted to 2×10^5 cells per mL in X-VIVO 15 medium and added to opaque 96-well plates at 100 μL per well. T-cell suspensions of 2-4×10^5 cells per mL (unless otherwise specified) were added to the 96-well plates at 100 μL per well and the cultures incubated 4 days before measuring cell numbers using CellTiter Glo® (to evaluate proliferation).
(§3) Alternatively, APC were not pulsed. Instead, each well contained 10 ug/mL antigen, 50 μl APC and 100 μL of T cells.
(§4) After incubating for 4 days at 37° C. (5% CO2), 100 μL were removed from each well, combined with 100 μL CellTiterGlo reagent, and luminescence was measured using a Packard Fusion. Results were expressed in relative light units (RLU).
(§5) As described in the Methods, T-cell lines were tested for MHC restriction by measuring proliferation following incubation with APC. Mitomycin-treated autologous APC, and test APC, e.g., from donors having at least one HLA-DR match with the original PBMC donor were employed. The values in the data tables below are in RLU.
(§6) Donor 3 T-cell line 165-B6C was assayed for proliferation, using mitomycin-treated APC from Donors 3, 5, and 6 that had been incubated in the presence or the absence of 20 μg/mL COP. T-cell line 165-B6C had been restimulated six times (not including the initial stimulation) with antigen before the MHC restriction assay was carried out. The data, shown in Table 68 and FIG. 12A, indicate that […] is restricted by HLA-DRβ1*11.
as §6, with “165-C7C” for “165-B6C”, “five” for “six”, “69” for “68”, “12B,” for “12A,”
T-cell line 165-D3C had been restimulated six times (not including the initial stimulation) with antigen before the MHC restriction assay was carried out. The data, shown in Table 70 and FIG. 13A, indicate that 165-D3Cis restricted by HLA-DRβ1*1501.
T-cell line 165-F3C had been restimulated eight times (not including the initial stimulation) with antigen before the MHC restriction assay was carried out. The data, shown in Table 71 and FIG. 13B, indicate that 165-F3C is restricted by HLA-DRβ1*11.
Donor 3 T-cell line 165-F6C was assayed for proliferation, using mitomycin-treated APC from Donors 3, 5, and 6 that had been incubated in the presence or the absence of 20 μg/mL COP. […]

[2] = test system: Donor 4 COP T-cell lines (205-1D1, 205-1H7, 205-1F4); assay: MHC DR restriction testing (ATP proliferation with autologous and partially HLA-DR matched B-LCL), Donor 4 COP T-cell lines; type: cell-based, human; settings: for Proliferation with antigen-incubated B-LCL, Mean: T-cell line 205-1F4
Description: as §1, §2, §3, §4, §5
(§7) Donor 4 T-cell line 205-1D1 was assayed for proliferation, using autologous B-LCL, and B-LCL from Donors 1, 2, and 6 that had been incubated in the presence or absence of 60 μg/mL COP. T-cell line 205-1D1 was restimulated 5 times (not including the initial stimulation) with antigen before the MHC restriction assay was carried out. The results, shown in Table 73, indicate that 205-1D1 is restricted by HLA-DRβ1*13.
as §7, with “205-1H7” for “205-1D1”, “40” for “60”, “74 and FIG. 14B,” for “73,”
Donor 4 T-cell line 205-1F4 and 205-1C4 was assayed for proliferation, using autologous B-LCL, and B-LCL from Donors 1, 2, and 6 that had been incubated in the presence or absence of 40 μg/mL COP. T-cell line 205-1F4 was restimulated 7 times (not including the initial stimulation) with antigen before the MHC restriction assay was carried out. The results, shown in Table 75, indicate that 205-1F4 is restricted by HLA-DRβ1*13.

glatiramer acetate [GMA]
Proliferation with antigen-incubated APC ([1]; T-cell line 165-B6C, B-LCL Donor 3 (Autologous) DRβ1*1501/DRβ1*11): 2237 RLU | Proliferation with antigen-incubated APC ([1]; T-cell line 165-B6C, B-LCL Donor 5 DRβ1*01/DRβ1*11): 8944 RLU | Proliferation with antigen-incubated APC ([1]; T-cell line 165-B6C, B-LCL Donor 6 DRβ1*1501/DRβ1*13): 322 RLU | Proliferation with antigen-incubated APC ([1]; T-cell line 165-C7C, B-LCL Donor 3 (Autologous) DRβ1*1501/DRβ1*11): 13714 RLU | Proliferation with antigen-incubated APC ([1]; T-cell line 165-C7C, B-LCL Donor 5 DRβ1*01/DRβ1*11): 94535 RLU | Proliferation with antigen-incubated APC ([1]; T-cell line 165-C7C, B-LCL Donor 6 DRβ1*1501/DRβ1*13): 1189 RLU | Proliferation with antigen-incubated APC ([1]; T-cell line 165-D3C, B-LCL Donor 3 (Autologous) DRβ1*1501/DRβ1*11): 106840 RLU | Proliferation with antigen-incubated APC ([1]; T-cell line 165-D3C, B-LCL Donor 5 DRβ1*01/DRβ1*11): 12173 RLU | Proliferation with antigen-incubated APC ([1]; T-cell line 165-D3C, B-LCL Donor 7 DRβ1*1501/DRβ1*03): 149506 RLU | Proliferation with antigen-incubated APC ([1]; T-cell line 165-F3C, B-LCL Donor 3 (Autologous) DRβ1*1501/DRβ1*11): 45559 RLU | Proliferation with antigen-incubated APC ([1]; T-cell line 165-F3C, B-LCL Donor 5 DRβ1*01/DRβ1*11): 39565 RLU | Proliferation with antigen-incubated APC ([1]; T-cell line 165-F3C, B-LCL Donor 6 DRβ1*1501/DRβ1*3): 7869 RLU | Proliferation with antigen-incubated APC ([1]; T-cell line 165-F6C, B-LCL Donor 3 (Autologous) DRβ1*1501/DRβ1*11): 12562 RLU | Proliferation with antigen-incubated APC ([1]; T-cell line 165-F6C, B-LCL Donor 5 DRβ1*01/DRβ1*11): 3142 RLU | Proliferation with antigen-incubated APC ([1]; T-cell line 165-F6C, B-LCL Donor 6 DRβ1*1501/DRβ1*13): 30293 RLU

glatiramer acetate [COP]
Proliferation with antigen-incubated B-LCL ([2]; T-cell line 205-1D1, B-LCL Donor 1 DRβ1*04:01/DRβ1*07:01, 60 μg/mL): 1504.7 RLU | Proliferation with antigen-incubated B-LCL ([2]; T-cell line 205-1D1, B-LCL Donor 2 DRβ1*04:01/DRβ1*04:04, 60 μg/mL): 1203.7 RLU | Proliferation with antigen-incubated B-LCL ([2]; T-cell line 205-1D1, B-LCL Donor 4 (autologous) DRβ1*07/DRβ1*13, 60 μg/mL): 231113.0 RLU | Proliferation with antigen-incubated B-LCL ([2]; T-cell line 205-1D1, B-LCL Donor 6 DRβ1*15:01/DRβ1*13, 60 μg/mL): 203780.3 RLU | Proliferation with antigen-incubated B-LCL, Mean ([2]; APC donor 1 *04:01, *07, 40 μg/mL): 11323 RLU | Proliferation with antigen-incubated B-LCL, Mean ([2]; APC donor 2 *04:01*04:04, 40 μg/mL): 1786 RLU | Proliferation with antigen-incubated B-LCL, Mean ([2]; APC donor 4 (autologous) *07, *13, 40 μg/mL): 84094 RLU | Proliferation with antigen-incubated B-LCL, Mean ([2]; APC donor 6 *13, *15, 40 μg/mL): 113079 RLU | Proliferation with antigen-incubated B-LCL ([2]; T-cell line 205-1H7, B-LCL Donor 1 DRβ1*04:01/DRβ1*07:01, 40 μg/mL): 8430 RLU | Proliferation with antigen-incubated B-LCL ([2]; T-cell line 205-1H7, B-LCL Donor 2 DRβ1*04:01/DRβ1*04:04, 40 μg/mL): 2065 RLU | Proliferation with antigen-incubated B-LCL ([2]; T-cell line 205-1H7, B-LCL Donor 4 (autologous) DRβ1*07/DRβ1*13, 40 μg/mL): 32418 RLU | Proliferation with antigen-incubated B-LCL ([2]; T-cell line 205-1H7, B-LCL Donor 6 DRβ1*15:01/DRβ1*13, 40 μg/mL): 30583 RLU
